Test results taken from article PMC8400257, “2-Phenoxy-3-Trichloromethylquinoxalines Are Antiplasmodial Derivatives with Activity against the Apicoplast of Plasmodium falciparum” (Pharmaceuticals, 2021).

Tests used:
[1] = system: P. falciparum ART-resistant strain F32-ART5; assay: Standard in vitro chemo-sensitivity assay, F32-ART5; format: cell-based; settings: Plasmodium falciparum, F32, 48 h, read-out: Mean ± SEM EC50 values F32-ART5
Procedure: (§1) The Plasmodium falciparum ART-resistant strain F32-ART5 and its tween ART-sensitive strain F32-TEM [33, 41] were cultivated at 37 °C with 5% CO2 in human red blood cells (EFS, French Blood Bank) diluted to 2% hematocrit in RPMI-1640 medium (Biowest, Nuaillé, France) supplemented with 5% human serum (EFS, French Blood Bank), as previously reported.
(§2) The chemosensitivity assay was carried out in 96-well culture plates on synchronized ring-stage parasites at 1% parasitemia obtained after D-sorbitol treatment. The antiplasmodial activities were evaluated using the SYBR Green I method. Parasites were exposed for 48 h to a range of concentrations of the different tested compounds. Each drug concentration was tested in triplicates. Parasite pellets were then washed in 1× PBS prior to lysing red blood cells at −20 °C overnight. Then, the plates were thawed and 100 µL of each well were transferred into a black 96-well plate. Next, 100 µL per well of SYBR Green I (Thermo Fisher) diluted at a final concentration of 2× in lysis buffer (20 mM Tris base pH 7.5, 5 mM EDTA, 0.008% w/v saponin, 0.08% w/v Triton X-100) were added and left to incubate for 1 h at room temperature prior to reading the plates on BioTek FLx800 Microplate Fluorescence Reader (λexcitation = 485 nm, λemission = 528 nm). Relative EC50 values were determined using GraphPad Prism software.

[2] = system: P. falciparum ART-sensitive strain F32-TEM; assay: Standard in vitro chemo-sensitivity assay, F32-TEM; format: cell-based; settings: Plasmodium falciparum, F32, 48 h, read-out: Mean ± SEM EC50 values F32-TEM
Procedure: as §1, §2

[3] = system: F32-ART5 and F32-TEM parasites; assay: Recrudescence assay; format: cell-based, Plasmodium falciparum; settings: 48 h exposure; 2.5 µM 3i or 18 µM ART; log-rank Mantel-Cox test
Procedure: Recrudescence assay was performed to evaluate the ability of the F32-ART5 parasites to survive drug exposure comparatively to the F32-TEM parasites. D-sorbitol synchronized ring-stages at 3% parasitemia (2% hematocrit) were exposed to drug for 48 h. After drug exposure, parasite cultures were washed with RPMI-1640 medium and replaced in normal drug-free culture conditions. The time to parasite recrudescence was determined as the time required to reach the 3% initial parasitemia. […] Each experiment was performed for F32-ART5 and F32-TEM and cultivated in parallel in the same conditions to generate paired results. This was carried out at least three times independently. A statistical analysis (log-rank Mantel–Cox test) was carried out on data thanks to a Kaplan–Meier survival analysis (using GraphPad Prism software) considering censored data.
Figure S48. 13C NMR spectrum of 2i in CDCl3, on a Bruker ARX 101 spectrometer
2. […]
3. Studying the effect of (3i) on the liver stage development of P. falciparum Cryopreserved primary human hepatocytes were seeded in 96 well plates with a pre-determined seeding dose that gave a single dense layer of attached hepatocytes. […]
The culture medium with or without drugs was refreshed every 48 hours and two independent plates were studied. […] Plates were subjected to quantification using an automated plate scanner. […]

[4] = system: Pf3D7 (3D7 chloroquine-sensitive strain); settings: Figure 2; cited from earlier work
[5] = system: PfFCR-3 (FCR-3 multidrug-resistant strain); parameters: method as in PMID 28291694; settings: Figure 2; cited from earlier work
[6] = system: HepG2; settings: Figure 2; cited from earlier work

Structure (SMILES)	EC50 [1] [nM]	EC50 [2] [nM]	Recrudescence of F32-ART5 compared with F32-TEM after drug exposure [3]	EC50 [4] [nM]	EC50 [5] [nM]	CC50 [6] [nM]
C[C@@H]1CC[C@H]2[C@@H](C)C(=O)O[C@@H]3O[C@@]4(C)CC[C@@H]1[C@]32OO4 [Artemisinin, reference compound]	11 ± 3	19 ± 3	significant faster			
Cc1c(/C=N/Nc2ccnc3cc(Cl)ccc23)[n+]([O-])c2cc(Cl)ccc2[n+]1[O-] [QdNO 19]				240	2800	> 241000
